Assay results: patent US11001569B2, “6-membered heteroaromatic substituted cyanoindoline derivatives as NIK inhibitors” (Janssen Pharmaceutica NV, priority 2016, dated 2021)
Like-named read-outs stand apart in the source and are kept apart here.

Legend:
[1] = target: recombinant human NF-kappaB-inducing Kinase (NIK/MAP3K14) (Homo sapiens, UniProt Q99558); experiment: Inhibition of auto-phosphorylation of recombinant human NIK/MAP3K14 activity (AlphaScreen); assay type: biochemical; conditions: 25 microM ATP, averaged over all measurements on all batches
Chain of recombinant human NF-kappaB-inducing Kinase (NIK/MAP3K14) (Q99558 whole entry): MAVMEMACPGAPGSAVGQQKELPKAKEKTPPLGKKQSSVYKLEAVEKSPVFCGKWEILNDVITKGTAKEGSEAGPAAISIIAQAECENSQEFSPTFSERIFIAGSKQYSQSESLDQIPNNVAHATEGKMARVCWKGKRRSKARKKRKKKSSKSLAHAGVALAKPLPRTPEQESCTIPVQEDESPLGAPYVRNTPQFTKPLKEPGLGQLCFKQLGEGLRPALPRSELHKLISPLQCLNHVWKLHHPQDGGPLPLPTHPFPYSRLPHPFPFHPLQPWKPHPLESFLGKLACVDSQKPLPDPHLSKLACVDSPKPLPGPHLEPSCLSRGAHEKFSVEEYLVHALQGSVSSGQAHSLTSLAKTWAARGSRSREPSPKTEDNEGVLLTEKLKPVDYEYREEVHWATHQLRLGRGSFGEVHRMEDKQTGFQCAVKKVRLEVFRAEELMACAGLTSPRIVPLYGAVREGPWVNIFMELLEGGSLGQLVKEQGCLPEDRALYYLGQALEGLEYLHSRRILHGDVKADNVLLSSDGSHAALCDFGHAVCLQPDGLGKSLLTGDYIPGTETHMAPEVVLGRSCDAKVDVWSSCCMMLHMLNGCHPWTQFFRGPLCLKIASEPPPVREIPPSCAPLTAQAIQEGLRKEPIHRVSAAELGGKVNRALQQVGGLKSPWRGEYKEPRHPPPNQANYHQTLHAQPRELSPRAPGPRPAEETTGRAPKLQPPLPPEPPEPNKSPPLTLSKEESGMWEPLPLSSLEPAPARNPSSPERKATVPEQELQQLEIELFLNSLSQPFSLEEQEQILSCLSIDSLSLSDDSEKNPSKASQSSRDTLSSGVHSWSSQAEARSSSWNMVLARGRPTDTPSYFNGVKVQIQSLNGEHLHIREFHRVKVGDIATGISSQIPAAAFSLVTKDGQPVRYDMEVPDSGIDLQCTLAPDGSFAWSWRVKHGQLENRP
Protocol: Pharmacological Part Biological assay A Inhibition of auto-phosphorylation of recombinant human NF-kappaB-inducing Kinase (NIK/MAP3K14) Activity (AlphaScreen®)
NIK/MAP3K14 auto-phosphorylation activity was measured using the AlphaScreen® (αscreen) format (Perkin Elmer). All compounds tested were dissolved in dimethyl sulfoxide (DMSO) and further dilutions were made in assay buffer. Final DMSO concentration was 1% (v/v) in assays. Assay buffer was 50 mM Tris pH 7.5 containing 1 mM EGTA (ethylene glycol tetraacetic acid), 1 mM DTT (dithiothreitol), 0.1 mM Na3VO4, 5 mM MgCl2, 0.01% Tween® 20. Assays were carried out in 384 well Alphaplates (Perkin Elmer). […] Incubations were initiated by addition of GST-tagged NIK/MAP3K14 enzyme, carried out for 1 h at 25° C. and terminated by addition of stop buffer containing anti-phospho-IKK Ser176/180 antibody. Protein A Acceptor and Glutathione-Donor beads were added before reading using an EnVision® Multilabel Plate Reader (Perkin Elmer). Signal obtained in the wells containing blank samples was subtracted from all other wells and IC50's were determined by fitting a sigmoidal curve to % inhibition of control versus Log10 compound concentration.

[2] = tested on: JJN-3 (NIK translocated) multiple myeloma cells; experiment: Antiproliferative activity on JJN-3 multiple myeloma cells (CellTiter-Glo); assay type: cell-based, human; conditions: Homo sapiens, JJN-3 (NIK translocated) cells, 96 hr treatment, averaged values, read-out: JJN-3 Proliferation inhibition (IC50 (nM))
Protocol: (§1) Determination of Antiproliferative Activity on JJN-3 (NIK Translocated) and KMS12-BM (NIK WT) Multiple Myeloma Cells
(§2) All compounds tested were dissolved in DMSO and further dilutions were made in culture medium. Final DMSO concentration was 0.3% (v/v) in cell proliferation assays. Viability was assessed using CellTiter-Glo cell viability assay kit (Promega). […] Cells were routinely kept as suspension cells at 37° C. in a humidified 5% CO2 atmosphere. Cells were passaged at a seeding density of 0.2×10^6/ml twice a week. Cells were seeded in black tissue culture treated 96-well plates (Perkin Elmer). Densities used for plating ranged from 15000 (JJN3) to 20000 (KMS12BM) cells per well in a total volume of 135 μl medium. Drugs and/or solvents were added (15 μl) to a final volume of 150 μl. Following 96 hr of treatment, plates were removed from the incubator and allowed to equilibrate to room temperature for approx 10 min. 75 μl CellTiter-Glo reagent was added to each well that was then covered (Perkin Elmer Topseal) and shaken on plate shaker for 10 min. Luminescence was measured on a HTS Topcount (Perkin Elmer). […] For initial screening purposes, compounds were tested using a 9 point dilution curve (serial 1:3 dilutions). For each experiment, controls (containing no drug) and a blank incubation (containing cells read at the time of compound addition) were run in parallel. The blank value was subtracted from all control and sample values. For each sample, the mean value for cell growth (in relative light units) was expressed as a percentage of the mean value for cell growth of the control.

[3] = tested on: KMS12-BM (NIK WT) multiple myeloma cells; experiment: Antiproliferative activity on KMS12-BM multiple myeloma cells (CellTiter-Glo); assay type: cell-based, human; conditions: Homo sapiens, KMS-12-BM, 96 hr treatment, averaged values, read-out: KMS-12 Proliferation inhibition (IC50 (nM))
Protocol: as §1, §2

Row | SMILES | IC50 [1] [nM] | IC50 ([2]; JJN-3, 96 h) [nM] | IC50 ([3]; 96 h) [nM] | melting point [°C] | IC50 [2] [nM] | IC50 [3] [nM]
1 | CC(C)OCCOc1ncccc1Nc1nccc(-c2cc(C#N)c3c(c2)[C@@](C)(CO)CN3)n1 [Compound 19] | 14.5 | 912 | > 10000 | 154 |  | 
2 | COc1cnccc1Nc1nccc(-c2cc(C#N)c3c(c2)[C@@](C)(CO)CN3)n1 [Compound 20] | 0.9 | 1580 | > 10000 | > 260 |  | 
3 | CC(C)OCCOc1ncc(Cl)cc1Nc1nccc(-c2cc(C#N)c3c(c2)[C@@](C)(CO)CN3)n1 [Compound 21] | 22.4 |  |  | 170 | 813 | > 10000
4 | C[C@]1(CO)CNc2c(C#N)cc(-c3ccnc(Nc4cccnc4OC4CCOCC4)n3)cc21 [Compound 23] | 4.9 | 708 | 7410 | 213 |  | 
5 | COc1cccnc1Nc1nccc(-c2cc(C#N)c3c(c2)[C@@](C)(CO)CN3)n1 [Compound 24] | 123 | 6920 | > 10000 | 145 |  | 
6 | C[C@]1(CO)CNc2c(C#N)cc(-c3ccnc(Nc4cccnc4O[C@H]4CCCOC4)n3)cc21 [Compound 26] | 4.1 | 794 | > 10000 | 155 |  | 
7 | C[C@]1(CO)CNc2c(C#N)cc(-c3ccnc(Nc4cccnc4O[C@@H]4CCCOC4)n3)cc21 [Compound 27] | 3.6 | 1510 | 7410 | 149 |  | 
8 | C[C@]1(CO)CNc2c(C#N)cc(-c3ccnc(Nc4cccnc4O[C@H]4CCOC4)n3)cc21 [Compound 28] | 3.2 | 813 | 3090 | 194 |  | 
9 | CC(C)Oc1ncc(Cl)cc1Nc1nccc(-c2cc(C#N)c3c(c2)[C@@](C)(CO)CN3)n1 [Compound 30] | 51.3 | 1260 | > 10000 | 195 |  | 
10 | CC1(CO)CNc2c(C#N)cc(-c3ccnc(Nc4cccnc4C(F)(F)F)n3)cc21 (centres unmarked) [Compound 31] | 9.8 | 2000 | > 10000 | 202 |  | 
11 | C[C@]1(CO)CNc2c(C#N)cc(-c3ccnc(Nc4cccn(CC(O)CO)c4=O)n3)cc21 (some centres unmarked) [Compound 31i] | 3.3 | ~5010 | > 10000 | > 250 |  | 
12 | COCCOc1ncccc1Nc1nccc(-c2cc(C#N)c3c(c2)[C@](C)(CO)CN3)n1 [Compound 34] | 38 | 2880 | > 10000 | 152 |  | 
13 | CCOc1ncc(Cl)cc1Nc1nccc(-c2cc(C#N)c3c(c2)[C@@](C)(CO)CN3)n1 [Compound 35] | 15.9 | 794 | > 10000 | 220 |  | 
14 | COc1ncc(F)cc1Nc1nccc(-c2cc(C#N)c3c(c2)[C@@](C)(CO)CN3)n1 [Compound 36] | 3.3 | 288 | > 10000 | > 250 |  | 
15 | COc1ccncc1Nc1nccc(-c2cc(C#N)c3c(c2)[C@@](C)(CO)CN3)n1 [Compound 37] | 1.8 | 3470 | > 10000 | 210 |  | 
16 | COCCN(C)c1nc(OC)c(Nc2nccc(-c3cc(C#N)c4c(c3)[C@@](C)(CO)CN4)n2)cc1Cl [Compound 38] | 19.5 | 79 | > 10000 | 215 |  | 
17 | COCCOc1ncc(Cl)cc1Nc1nccc(-c2cc(C#N)c3c(c2)[C@@](C)(CO)CN3)n1 [Compound 39] | 8.5 | 324 | > 10000 | 204 |  | 
18 | CCCCOc1ncccc1Nc1nccc(-c2cc(C#N)c3c(c2)[C@@](C)(CO)CN3)n1 [Compound 40] | 16.6 | 550 | 3800 | 143 |  | 
19 | C[C@]1(CO)CNc2c(C#N)cc(-c3ccnc(Nc4cccnc4OC[C@@H]4CCCO4)n3)cc21 [Compound 42] | 6.2 | 347 | > 10000 | 154 |  | 
20 | C[C@]1(CO)CNc2c(C#N)cc(-c3ccnc(Nc4cccnc4OC[C@H]4CCCO4)n3)cc21 [Compound 43] | 4 | 115 | > 10000 | 141 |  | 

Continued, values first:

Row | IC50 [1] [nM] | IC50 ([2]; JJN-3, 96 h) [nM] | IC50 ([3]; 96 h) [nM] | melting point [°C] | IC50 [2] [nM] | IC50 [3] [nM] | SMILES
21 | 9.3 | 81 | > 10000 | 217 |  |  | COc1nc(C2CCOCC2)ccc1Nc1nccc(-c2cc(C#N)c3c(c2)[C@@](C)(CO)CN3)n1 [Compound 44]
22 | 9.1 | 195 | > 10000 | 138 |  |  | C[C@]1(CO)CNc2c(C#N)cc(-c3ccnc(Nc4cccnc4OCC4CC4)n3)cc21 [Compound 45]
23 | 13.2 | 1120 | > 10000 | 215 |  |  | COCCOc1ccncc1Nc1nccc(-c2cc(C#N)c3c(c2)[C@@](C)(CO)CN3)n1 [Compound 47]
24 | 95.5 | 3470 | > 10000 | 190 |  |  | COCCOc1nc(C(F)(F)F)ccc1Nc1nccc(-c2cc(C#N)c3c(c2)[C@@](C)(CO)CN3)n1 [Compound 53]
25 | 29.5 | 977 | > 10000 | 117 |  |  | COCCOc1nc(C2CC2)ccc1Nc1nccc(-c2cc(C#N)c3c(c2)[C@@](C)(CO)CN3)n1 [Compound 62]
26 | 2.2 | 204 | 2460 | > 250 |  |  | COc1ncccc1Nc1ncc(F)c(-c2cc(C#N)c3c(c2)C(C)(CO)CN3)n1 (centres unmarked) [Compound 101]
27 | 6.5 | 1580 | > 10000 | > 250 |  |  | COc1ncc(Cl)cc1Nc1ncc(F)c(-c2cc(C#N)c3c(c2)C(C)(CO)CN3)n1 (centres unmarked) [Compound 102]
28 | 1 | 120 | 1580 | > 250 |  |  | COc1ncccc1Nc1ncc(F)c(-c2cc(C#N)c3c(c2)[C@@](C)(CO)CN3)n1 [Compound 103]
29 | 11.2 | 112 | > 10000 | > 250 |  |  | COc1ncc(Cl)cc1Nc1ncc(F)c(-c2cc(C#N)c3c(c2)[C@@](C)(CO)CN3)n1 [Compound 104]
30 | 30.9 | 2240 | ~3720 | 284 |  |  | CC1(CO)CNc2c(C#N)cc(-c3nc(Nc4cc(Cl)cnc4OC4CCOCC4)ncc3F)cc21 (centres unmarked) [Compound 105]
31 | 3.4 | 275 | 2630 | > 250 |  |  | COCCOc1ncccc1Nc1ncc(F)c(-c2cc(C#N)c3c(c2)[C@@](C)(CO)CN3)n1 [Compound 106]
32 | 4.8 | 309 | 562 | 226 |  |  | CC1(CO)CNc2c(C#N)cc(-c3nc(Nc4cccnc4OC4CCOCC4)ncc3F)cc21 (centres unmarked) [Compound 107]
33 | 25.1 | 2140 | ~3980 | 173 |  |  | CNCC1(C)CNc2c(C#N)cc(-c3ccnc(Nc4cccnc4OC)n3)cc21 (centres unmarked) [Compound 108]
34 | 38 | 794 | > 10000 | 171 |  |  | COc1ncc(Cl)cc1Nc1nccc(-c2cc(C#N)c3c(c2)[C@](C)(COC(=O)[C@H](C)N)CN3)n1 [Compound 109]
35 | 33.9 | 1860 | > 10000 | 116 |  |  | COc1ncccc1Nc1nccc(-c2cc(C#N)c3c(c2)C(C)(CNC2CC2)CN3)n1 (centres unmarked) [Compound 110]
